This is an account of results in PubChem BioAssay (NCI).

Among the test systems are MOLT-4 leukemia; HCT-15 colon; MDA-MB-231 breast; SF-295 CNS; MCF7 breast; HOP-92 NSCLC; K-562 leukemia; MDA-N; DU-145 prostate; BT-549 breast; 786-0 renal.
Assay in all cases: NCI tumour cell line growth inhibition, 48 h

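These data come from cells grown in 96-well plates and exposed to compound for 48 hours at five concentrations. TGI: concentration producing complete growth inhibition.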 A value given as a limit tells only on which side of the number the result lay.

As to `COc1ccc2nc3c([N+](=O)[O-])ccc4c3c(c2c1)N=CN4CCN(C)C`, the TGI in the test with MOLT-4 leukemia came out at 6.73 µM; in the test with HCT-15 colon it was 16.6 µM; in the test on MDA-MB-231 breast, 10.7 µM; with SF-295 CNS, 21.7 µM; in the test with MCF7 breast, 14.2 µM; in the test on HOP-92 NSCLC, 26.1 µM. Further, the TGI in the test with K-562 leukemia worked out at 2.94 µM; in the test on MDA-N it was 16.9 µM; in the test on DU-145 prostate, 15.8 µM; with BT-549 breast it was 28.6 µM; in the test on 786-0 renal, 21.5 µM.

Consider `CC(=O)Oc1ccc(C)c2c1[C@H]1CC[C@]3(C)[C@@H](OC(C)=O)CC[C@H]3[C@@H]1CC2`, for which the TGI with MOLT-4 leukemia amounted to 46.5 µM; in the test on HCT-15 colon, 35.2 µM; in the test with MDA-MB-231 breast, 33.9 µM; with SF-295 CNS, 48.5 µM; in the test on MCF7 breast, 38.9 µM; in the test on HOP-92 NSCLC, 30.9 µM. The TGI turned out to be 68.3 µM in the test with K-562 leukemia; 36.8 µM with MDA-N; 66.6 µM with DU-145 prostate; 32 µM in the test on BT-549 breast; 39.4 µM in the test on 786-0 renal.

In the case of `Nc1n[nH]c(N)n1`, the TGI with MOLT-4 leukemia was greater than 10000 µM; in the test on HCT-15 colon, greater than 10000 µM; in the test with MDA-MB-231 breast, greater than 10000 µM; with SF-295 CNS, 7800 µM; in the test with MCF7 breast it was greater than 10000 µM; in the test with HOP-92 NSCLC, 9580 µM. In addition, the TGI with K-562 leukemia, in the test with MDA-N, with DU-145 prostate, in the test with BT-549 breast and with 786-0 renal was greater than 10000 µM in each case.

As to `CCOC(=O)CN1C(=O)c2c(NC(=O)C(=O)O)cccc2S1(=O)=O`, the TGI in the test with MOLT-4 leukemia, in the test with HCT-15 colon, with MDA-MB-231 breast, with SF-295 CNS, with MCF7 breast and in the test with HOP-92 NSCLC was greater than 100 µM each time. Further, the TGI in the test with K-562 leukemia, in the test on MDA-N, with DU-145 prostate, in the test with BT-549 breast and in the test with 786-0 renal was greater than 100 µM throughout.
